Consider 17 compounds from patent US20150005281A1, “PYRIMIDINE-2,4-DIAMINE DERIVATIVES AS KINASE INHIBITORS” (Cellzome Limited, priority 2011, published 2015).

SMILES strings stand for the structures. Some results are limits rather than exact numbers.

Holding throughout (type): binding
In assay [1] the target is T1, JAK1 (Homo sapiens, UniProt P23458).
T1 construct: endogenous in cells; host or cells: Molt4 (ATCC CRL-1582) and Ramos (ATCC CRL-1596) cells; mixed lysate 1:2
In words: Kinobeads assay with immunodetection, JAK1. The following applies: for IC50: Kinobeads assay, mixed Molt4/Ramos lysate, read-out: Inhibition values (IC50) JAK1. In short, it runs like this: (§1)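 Competition binding: test compounds (9-step 1:3 dilutions of a 5 mM DMSO stock) compete with affinity matrix ligand for kinases in Molt4 plus Ramos lysate (ratio 1:2, 10 mg/mL) over 3 h in a cold room. Captured kinases are detected by specific antibodies in dot blot, and IC50 values are derived per kinase.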

The target of assay [2] is T2, JAK2 (Homo sapiens, UniProt O60674).
T2 construct: endogenous in cells; host or cells: Molt4 (ATCC CRL-1582) and Ramos (ATCC CRL-1596) cells; mixed lysate 1:2
In words: Kinobeads assay with immunodetection, JAK2. The conditions noted are these: mixed Molt4/Ramos lysate, read-out: Inhibition values (IC50) JAK2. In short, it runs like this: as §1

The target in assay [3] is T3, JAK3 (Homo sapiens, UniProt P52333).
T3 construct: endogenous in cells; host or cells: Molt4 (ATCC CRL-1582) and Ramos (ATCC CRL-1596) cells; mixed lysate 1:2
T3 sequence (P52333 1-1124): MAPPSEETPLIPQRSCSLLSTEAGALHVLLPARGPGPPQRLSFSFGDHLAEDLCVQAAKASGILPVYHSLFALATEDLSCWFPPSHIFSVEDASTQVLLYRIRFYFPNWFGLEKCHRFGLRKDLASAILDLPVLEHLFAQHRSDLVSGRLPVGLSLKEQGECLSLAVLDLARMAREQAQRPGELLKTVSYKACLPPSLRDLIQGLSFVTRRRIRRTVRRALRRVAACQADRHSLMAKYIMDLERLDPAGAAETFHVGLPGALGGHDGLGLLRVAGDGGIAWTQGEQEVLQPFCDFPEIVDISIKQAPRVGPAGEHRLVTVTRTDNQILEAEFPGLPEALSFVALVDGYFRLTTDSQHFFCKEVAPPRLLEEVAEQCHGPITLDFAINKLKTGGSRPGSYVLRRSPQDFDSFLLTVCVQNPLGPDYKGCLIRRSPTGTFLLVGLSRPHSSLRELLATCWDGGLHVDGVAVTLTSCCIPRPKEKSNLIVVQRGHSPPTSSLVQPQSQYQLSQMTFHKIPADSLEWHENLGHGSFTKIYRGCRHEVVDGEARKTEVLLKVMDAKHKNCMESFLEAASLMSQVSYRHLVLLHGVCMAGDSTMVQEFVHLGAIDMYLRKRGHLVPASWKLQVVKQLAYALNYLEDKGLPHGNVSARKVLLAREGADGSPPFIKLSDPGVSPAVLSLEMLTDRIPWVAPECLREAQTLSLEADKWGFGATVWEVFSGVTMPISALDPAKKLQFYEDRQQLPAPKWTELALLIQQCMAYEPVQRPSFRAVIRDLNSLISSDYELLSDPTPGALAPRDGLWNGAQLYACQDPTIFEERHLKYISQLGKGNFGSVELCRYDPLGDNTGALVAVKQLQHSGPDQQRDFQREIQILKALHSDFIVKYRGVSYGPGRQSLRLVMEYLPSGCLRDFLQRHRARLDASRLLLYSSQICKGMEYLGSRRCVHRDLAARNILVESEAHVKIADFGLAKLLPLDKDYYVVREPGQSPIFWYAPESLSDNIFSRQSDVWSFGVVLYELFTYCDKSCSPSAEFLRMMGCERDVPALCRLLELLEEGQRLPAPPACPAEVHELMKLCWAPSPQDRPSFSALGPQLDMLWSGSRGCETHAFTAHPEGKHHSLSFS
In words: Kinobeads assay with immunodetection, JAK3. The following applies: Kinobeads assay, mixed Molt4/Ramos lysate; read-out: Inhibition values (IC50) JAK3. The method in brief: as §1

Assay [4] concerns the target T4, TYK2 (Homo sapiens, UniProt P29597).
T4 construct: endogenous in cells; host or cells: Molt4 (ATCC CRL-1582) and Ramos (ATCC CRL-1596) cells; mixed lysate 1:2
The assay is described as follows: Kinobeads assay with immunodetection, TYK2. The conditions noted are these: for IC50: Kinobeads assay, mixed Molt4/Ramos lysate, read-out: Inhibition values (IC50) Tyk2. In short, it runs like this: as §1

T4 sequence (P29597 whole entry): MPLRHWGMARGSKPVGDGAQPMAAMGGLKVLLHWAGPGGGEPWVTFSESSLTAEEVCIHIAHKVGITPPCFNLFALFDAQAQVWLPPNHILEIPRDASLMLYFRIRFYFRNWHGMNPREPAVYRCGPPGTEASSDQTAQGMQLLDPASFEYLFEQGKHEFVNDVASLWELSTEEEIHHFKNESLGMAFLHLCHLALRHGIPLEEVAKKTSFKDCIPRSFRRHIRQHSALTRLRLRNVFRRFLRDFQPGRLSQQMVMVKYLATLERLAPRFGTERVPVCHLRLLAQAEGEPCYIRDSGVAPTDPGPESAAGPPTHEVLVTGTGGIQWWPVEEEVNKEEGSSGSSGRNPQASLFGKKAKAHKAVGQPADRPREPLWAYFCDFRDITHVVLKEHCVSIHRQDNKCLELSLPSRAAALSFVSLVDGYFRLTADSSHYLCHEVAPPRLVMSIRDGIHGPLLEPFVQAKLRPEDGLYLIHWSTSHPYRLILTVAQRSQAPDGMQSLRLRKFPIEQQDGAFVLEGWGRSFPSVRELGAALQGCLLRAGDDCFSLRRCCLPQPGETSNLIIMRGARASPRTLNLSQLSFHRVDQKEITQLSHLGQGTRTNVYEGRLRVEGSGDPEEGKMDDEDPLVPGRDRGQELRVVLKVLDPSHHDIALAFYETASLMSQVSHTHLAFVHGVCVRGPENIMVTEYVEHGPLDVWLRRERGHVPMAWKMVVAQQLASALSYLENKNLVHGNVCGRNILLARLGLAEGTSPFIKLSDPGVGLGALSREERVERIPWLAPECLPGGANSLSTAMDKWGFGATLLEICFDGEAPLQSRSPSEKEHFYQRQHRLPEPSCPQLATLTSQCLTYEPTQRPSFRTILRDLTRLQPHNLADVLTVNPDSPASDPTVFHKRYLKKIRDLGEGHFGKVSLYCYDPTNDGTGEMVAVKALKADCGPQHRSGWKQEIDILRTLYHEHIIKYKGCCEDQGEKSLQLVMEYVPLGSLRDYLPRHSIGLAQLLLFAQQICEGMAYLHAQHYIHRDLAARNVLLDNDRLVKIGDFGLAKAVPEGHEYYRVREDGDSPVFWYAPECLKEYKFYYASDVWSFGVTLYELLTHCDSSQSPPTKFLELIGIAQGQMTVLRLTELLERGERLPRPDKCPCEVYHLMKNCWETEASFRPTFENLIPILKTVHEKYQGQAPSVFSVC
T2 sequence (O60674 whole entry): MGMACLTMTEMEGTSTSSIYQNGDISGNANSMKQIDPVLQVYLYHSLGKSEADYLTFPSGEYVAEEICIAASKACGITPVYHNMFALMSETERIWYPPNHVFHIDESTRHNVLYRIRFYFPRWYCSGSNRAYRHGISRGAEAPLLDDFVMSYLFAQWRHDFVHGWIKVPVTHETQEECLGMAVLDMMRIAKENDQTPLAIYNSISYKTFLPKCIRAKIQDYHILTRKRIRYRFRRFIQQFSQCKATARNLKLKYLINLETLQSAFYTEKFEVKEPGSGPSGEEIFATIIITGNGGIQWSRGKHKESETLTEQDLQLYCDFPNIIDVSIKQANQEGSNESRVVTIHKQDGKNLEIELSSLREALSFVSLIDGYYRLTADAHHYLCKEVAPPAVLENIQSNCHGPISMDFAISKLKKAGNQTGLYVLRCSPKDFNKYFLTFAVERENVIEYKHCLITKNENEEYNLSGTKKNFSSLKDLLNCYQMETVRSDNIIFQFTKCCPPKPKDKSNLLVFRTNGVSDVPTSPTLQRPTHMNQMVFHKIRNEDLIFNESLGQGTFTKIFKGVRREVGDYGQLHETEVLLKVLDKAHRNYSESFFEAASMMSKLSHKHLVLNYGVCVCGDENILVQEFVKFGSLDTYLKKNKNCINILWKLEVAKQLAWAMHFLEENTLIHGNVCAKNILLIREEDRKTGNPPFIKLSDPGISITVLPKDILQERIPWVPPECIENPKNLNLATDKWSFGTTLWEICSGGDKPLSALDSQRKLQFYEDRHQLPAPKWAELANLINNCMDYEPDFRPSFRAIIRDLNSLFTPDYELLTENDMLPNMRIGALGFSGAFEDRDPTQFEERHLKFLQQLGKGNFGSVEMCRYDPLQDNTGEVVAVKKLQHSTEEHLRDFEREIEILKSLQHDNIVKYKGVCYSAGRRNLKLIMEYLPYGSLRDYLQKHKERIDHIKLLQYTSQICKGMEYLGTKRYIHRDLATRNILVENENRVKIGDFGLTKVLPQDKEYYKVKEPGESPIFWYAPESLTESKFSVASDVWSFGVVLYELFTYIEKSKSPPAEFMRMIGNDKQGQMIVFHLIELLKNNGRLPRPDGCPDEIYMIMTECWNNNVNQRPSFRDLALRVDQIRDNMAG
T1 sequence (P23458 whole entry): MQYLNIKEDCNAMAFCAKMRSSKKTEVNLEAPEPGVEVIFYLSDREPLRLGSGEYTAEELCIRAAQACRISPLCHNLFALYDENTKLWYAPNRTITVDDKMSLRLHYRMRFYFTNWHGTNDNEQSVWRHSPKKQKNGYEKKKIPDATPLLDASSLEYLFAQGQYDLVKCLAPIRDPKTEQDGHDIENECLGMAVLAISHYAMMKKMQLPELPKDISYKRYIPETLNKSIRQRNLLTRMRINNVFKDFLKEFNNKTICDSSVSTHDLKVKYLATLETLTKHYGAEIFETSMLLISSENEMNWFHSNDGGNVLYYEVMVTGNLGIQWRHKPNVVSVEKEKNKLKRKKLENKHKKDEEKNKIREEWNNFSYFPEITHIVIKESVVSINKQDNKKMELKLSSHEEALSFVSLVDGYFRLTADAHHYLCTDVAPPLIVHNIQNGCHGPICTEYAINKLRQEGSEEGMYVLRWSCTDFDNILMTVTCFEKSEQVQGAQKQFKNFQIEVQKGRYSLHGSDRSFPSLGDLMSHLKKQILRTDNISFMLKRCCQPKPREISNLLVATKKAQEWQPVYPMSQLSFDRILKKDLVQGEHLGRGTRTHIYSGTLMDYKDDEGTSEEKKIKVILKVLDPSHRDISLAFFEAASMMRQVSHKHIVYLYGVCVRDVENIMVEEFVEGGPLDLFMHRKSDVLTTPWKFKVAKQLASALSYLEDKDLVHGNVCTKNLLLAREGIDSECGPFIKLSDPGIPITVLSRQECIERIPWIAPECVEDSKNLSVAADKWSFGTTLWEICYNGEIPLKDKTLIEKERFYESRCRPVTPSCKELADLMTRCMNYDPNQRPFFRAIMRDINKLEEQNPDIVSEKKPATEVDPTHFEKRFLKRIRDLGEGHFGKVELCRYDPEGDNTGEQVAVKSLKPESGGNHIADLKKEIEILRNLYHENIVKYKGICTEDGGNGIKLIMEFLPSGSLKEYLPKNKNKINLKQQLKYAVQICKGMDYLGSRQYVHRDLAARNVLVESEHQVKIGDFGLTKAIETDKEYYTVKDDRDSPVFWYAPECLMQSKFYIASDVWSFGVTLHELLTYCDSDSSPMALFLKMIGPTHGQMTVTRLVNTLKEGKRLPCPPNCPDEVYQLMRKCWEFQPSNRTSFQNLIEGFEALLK

Take `Cn1cc(Nc2ncc(Cl)c(NC[C@H]3CCCN3CCC#N)n2)cn1` [Example 49, (R)-3-(2-((5-chloro-2-(1-methyl-1H-pyrazol-4-ylamino)pyrimidin-4-ylamino)methyl)pyrrolidin-1-yl)propanenitrile]: the IC50 (usually the concentration needed to halve the response being measured) is below 100 nM in assay [1], 100 to 1000 nM in assay [2], below 100 nM in assay [3] and below 100 nM in assay [4]. In addition, the “Selectivity ratio over JAK2, Tyk2” value in assay [4] is recorded as “Tyk2 = 42”.

In the case of `Cn1cc(Nc2ncc(Cl)c(NC[C@H]3CCCN3CCS(C)(=O)=O)n2)cn1` [Example 50, (R)-5-chloro-N^2-(1-methyl-1H-pyrazol-4-yl)-N^4-((1-(2-(methylsulfonyl)ethyl)pyrrolidin-2-yl)methyl)pyrimidine-2,4-diamine], the IC50 in assay [1] was below 100 nM; in assay [2] it was 100 to 1000 nM; in assay [3], below 100 nM; in assay [4], below 100 nM. Besides, the “Selectivity ratio over JAK2, Tyk2” value in assay [4] was “Tyk2 = 25”.

For the compound `CCS(=O)(=O)N1CCC[C@@H]1CNc1nc(Nc2cnn(C)c2)ncc1Cl` [Example 51, (R)-5-chloro-N^4-((1-(ethylsulfonyl)pyrrolidin-2-yl)methyl)-N^2-(1-methyl-1H-pyrazol-4-yl)pyrimidine-2,4-diamine], the IC50 in assay [1] is below 100 nM; in assay [2], 100 to 1000 nM; in assay [3], below 100 nM; in assay [4], below 100 nM. Also, the “Selectivity ratio over JAK2, Tyk2” value in assay [4] was “Tyk2 = 14”.

Take `Cn1cc(Nc2ncc(Cl)c(NC[C@H]3CCCN3C(=O)CC#N)n2)cn1` [Example 52, (R)-3-(2-((5-chloro-2-(1-methyl-1H-pyrazol-4-ylamino)pyrimidin-4-ylamino)methyl)pyrrolidin-1-yl)-3-oxopropanenitrile]: the IC50 is below 100 nM in assay [1], 100 to 1000 nM in assay [2], below 100 nM in assay [3] and below 100 nM in assay [4]. The “Selectivity ratio over JAK2, Tyk2” value in assay [4] is reported as “Tyk2 = 30”.

As for `CN(C)CC(=O)N1CCC[C@@H]1CNc1nc(Nc2cnn(C)c2)ncc1Cl` [Example 53, (R)-1-(2-((5-chloro-2-(1-methyl-1H-pyrazol-4-ylamino)pyrimidin-4-ylamino)methyl)pyrrolidin-1-yl)-2-(dimethylamino)ethanone], the “Selectivity ratio over JAK2, JAK1” value in assay [1] is on record as “JAK1 = 93”. In addition, the IC50 in assay [1] was below 100 nM; in assay [2], 1000 to 10000 nM; in assay [3], 100 to 1000 nM; in assay [4], 100 to 1000 nM.

Turning to `Cn1cc(Nc2ncc(Cl)c(NC[C@H]3CCCN3C(=O)CO)n2)cn1` [Example 54, (R)-1-(2-((5-chloro-2-(1-methyl-1H-pyrazol-4-ylamino)pyrimidin-4-ylamino)methyl)pyrrolidin-1-yl)-2-hydroxyethanone], the IC50 is below 100 nM in assay [1], 100 to 1000 nM in assay [2], 100 to 1000 nM in assay [3] and below 100 nM in assay [4]. Moreover, in assay [4], the “Selectivity ratio over JAK2, Tyk2” value is “Tyk2 = 12”.

On to `Cn1cc(Nc2ncc(Cl)c(NC[C@H]3CCN(CCS(C)(=O)=O)C3)n2)cn1` [Example 55, (R)-5-chloro-N^2-(1-methyl-1H-pyrazol-4-yl)-N^4-((1-(2-(methylsulfonyl)ethyl)pyrrolidin-3-yl)methyl)pyrimidine-2,4-diamine], for which the “Selectivity ratio over JAK2, JAK1” value in assay [1] was “JAK1 = 11”. Besides, the concentration for half-maximal inhibition (IC50) in assay [1] is below 100 nM; in assay [2], 100 to 1000 nM; in assay [3], below 100 nM; in assay [4] it was 100 to 1000 nM.

In the case of `Cn1cc(Nc2ncc(Cl)c(NC[C@H]3CCN(CCO)C3)n2)cn1` [Example 56, (R)-2-(3-((5-chloro-2-(1-methyl-1H-pyrazol-4-ylamino)pyrimidin-4-ylamino)methyl)pyrrolidin-1-yl)ethanol], in assay [1], the “Selectivity ratio over JAK2, JAK1” value is “JAK1 = 46”. Also, the IC50 is 100 to 1000 nM in assay [1], 1000 to 10000 nM in assay [2], 1000 to 10000 nM in assay [3] and 1000 to 10000 nM in assay [4].

As to `Cn1cc(Nc2ncc(Cl)c(NC[C@H]3CCN(CCC#N)C3)n2)cn1` [Example 57, (R)-3-(3-((5-chloro-2-(1-methyl-1H-pyrazol-4-ylamino)pyrimidin-4-ylamino)methyl)pyrrolidin-1-yl)propanenitrile], the “Selectivity ratio over JAK2, JAK1” value in assay [1] is “JAK1 = 15”. For the same compound, the IC50 in assay [1] is 100 to 1000 nM; in assay [2], 1000 to 10000 nM; in assay [3], below 100 nM; in assay [4], 100 to 1000 nM.

Regarding `Cn1cc(Nc2ncc(Cl)c(NC[C@H]3CCN(C(=O)CC#N)C3)n2)cn1` [Example 58, (R)-3-(3-((5-chloro-2-(1-methyl-1H-pyrazol-4-ylamino)pyrimidin-4-ylamino)methyl)pyrrolidin-1-yl)-3-oxopropanenitrile], the “Selectivity ratio over JAK2, JAK1” value in assay [1] is listed as “JAK1 = 15”. For the same compound, the IC50 was below 100 nM in assay [1], 100 to 1000 nM in assay [2], below 100 nM in assay [3] and below 100 nM in assay [4].

Turning to `CN(C)CC(=O)N1CC[C@H](CNc2nc(Nc3cnn(C)c3)ncc2Cl)C1` [Example 59, (R)-1-(3-((5-chloro-2-(1-methyl-1H-pyrazol-4-ylamino)pyrimidin-4-ylamino)methyl)pyrrolidin-1-yl)-2-(dimethylamino)ethanone], the “Selectivity ratio over JAK2, JAK1” value in assay [1] is “JAK1 = 33”. Further, the IC50 in assay [1] was in the range of 100 to 1000 nM; in assay [2], 1000 to 10000 nM; in assay [3], 1000 to 10000 nM; in assay [4], 100 to 1000 nM.

`CCN1CCC[C@@H]1CNc1nc(Nc2cnn(C)c2)ncc1Cl` [Example 60, (R)-5-chloro-N^4-((1-ethylpyrrolidin-2-yl)methyl)-N^2-(1-methyl-1H-pyrazol-4-yl)pyrimidine-2,4-diamine]: the “Selectivity ratio over JAK2, JAK1” value in assay [1] is reported as “JAK1 = 45”. The IC50 is 100 to 1000 nM in assay [1], above 10000 nM in assay [2], 100 to 1000 nM in assay [3] and 100 to 1000 nM in assay [4].

In the case of `CCN1CCC[C@H]1CNc1nc(Nc2cnn(C)c2)ncc1Cl` [Example 61, (S)-5-chloro-N4-((1-ethylpyrrolidin-2-yl)methyl)-N2-(1-methyl-1H-pyrazol-4-yl)pyrimidine-2,4-diamine], in assay [1], the “Selectivity ratio over JAK2, JAK1” value is listed as “JAK1 = 49”. For the same compound, the IC50 was 100 to 1000 nM in assay [1], above 10000 nM in assay [2], 100 to 1000 nM in assay [3] and above 10000 nM in assay [4].

As for `CN1CCCC1CNc1nc(Nc2cnn(C)c2)ncc1Cl` (stereo not shown) [Example 62, 5-chloro-N^2-(1-methyl-1H-pyrazol-4-yl)-N^4-((1-methylpyrrolidin-2-yl)methyl)pyrimidine-2,4-diamine], the “Selectivity ratio over JAK2, JAK1” value in assay [1] is listed as “JAK1 = 23”. For the same compound, the IC50 was 100 to 1000 nM in assay [1], above 10000 nM in assay [2], 100 to 1000 nM in assay [3] and above 10000 nM in assay [4].

In the case of `CNC(=O)Cn1cc(Nc2ncc(Cl)c(NC[C@H]3CCCN3)n2)cn1` [Example 63, (R)-2-(4-(5-chloro-4-(pyrrolidin-2-ylmethylamino)pyrimidin-2-ylamino)-1H-pyrazol-1-yl)-N-methylacetamide], the IC50 is 1000 to 10000 nM in assay [1], above 10000 nM in assay [2], 1000 to 10000 nM in assay [3] and 1000 to 10000 nM in assay [4].

Consider `CN(C)C(=O)Cn1cc(Nc2ncc(Cl)c(NC[C@H]3CCCN3)n2)cn1` [Example 64, (R)-2-(4-(5-chloro-4-(pyrrolidin-2-ylmethylamino)pyrimidin-2-ylamino)-1H-pyrazol-1-yl)-N,N-dimethylacetamide], for which the 50% inhibitory concentration (IC50) was 100 to 1000 nM in assay [1], above 10000 nM in assay [2], 1000 to 10000 nM in assay [3] and 1000 to 10000 nM in assay [4].

In the case of `CNC(=O)Cn1cc(Nc2ncc(Cl)c(NC[C@@H]3CCCN3)n2)cn1` [Example 65, (S)-2-(4-(5-chloro-4-(pyrrolidin-2-ylmethylamino)pyrimidin-2-ylamino)-1H-pyrazol-1-yl)-N-methylacetamide], the IC50 in assay [1] was 1000 to 10000 nM; in assay [2], above 10000 nM; in assay [3], 1000 to 10000 nM; in assay [4], 1000 to 10000 nM.
